Measurements taken from patent EP0038629A1, “Virazole derivatives, process for their preparation and use as antiviral agents” (priority 1980, dated 1981).
Read-outs that look alike come from different tables or passages of the source. Marks after values point to notes of the source that are not given here.

Test system: mouse adapted strain of the A2/HK/l/68 virus
Conditions: 10^-4 mole/kg doses twice daily for 3 days; for Weight Change Day 0 -Day 3: dosing period, indication of toxicity

| Compound | Day 8 Means Body Wt. (Expt. 1, subcutaneous) [gm] | Day 8 Means Lung WT./ Body Wt. Ratio x 100 (Expt. 1, subcutaneous) | Day 8 Means Lung Wt. (Expt. 1, subcutaneous) [mg] | Weight Change Day 3 -Day 8 (Expt. 1, subcutaneous) | Weight Change Day 0 -Day 3 (Expt. 1, subcutaneous) | Day 8 Means Body Wt. (Expt. 2, subcutaneous) [gm] | Day 8 Means Lung WT./ Body Wt. Ratio x 100 (Expt. 2, subcutaneous) | Day 8 Means Lung Wt. (Expt. 2, subcutaneous) [mg] | Weight Change Day 3 -Day 8 (Expt. 2, subcutaneous) | Weight Change Day 0 -Day 3 (Expt. 2, subcutaneous) | Day 8 Means Body Wt. (Expt. 3, oral) [gm] | Day 8 Means Lung WT./ Body Wt. Ratio x 100 (Expt. 3, oral) | Day 8 Means Lung Wt. (Expt. 3, oral) [mg] | Weight Change Day 3 -Day 8 (Expt. 3, oral) | Weight Change Day 0 -Day 3 (Expt. 3, oral) |
| --- | --- | --- | --- | --- | --- | --- | --- | --- | --- | --- | --- | --- | --- | --- | --- |
| 1-[β-D-(5'-succinyl-2',3'-carbonyl)ribofuranosyl]-3-carbamoyl-1,2,4-triazole amantadine salt [Compound 6] | 22.4 | 1.25 | 273 | +0.9 | +2.4 | 21.2 | 1.30** | 266 | +0.4 | +2.1 | 22.5 | 1.25** | 275 | +0.7 | +2.6 |
| NC(=O)c1ncn([C@@H]2O[C@H](CO)[C@@H](O)[C@H]2O)n1 [Compound 1, 1-β-D-ribofuranosyl-3-carbamoyl-1,2,4-triazole, reference compound] | 20.7 | 1.16 | 238 | +0.8 | +0.7* | 20.5 | 1.36 | 291 | +1.8 | +0.2* | 19.1 | 1.40** | 285 | -0.8 | +0.9* |
